{"source": "paper PMC11073699", "about": "“Odorant receptors for floral- and plant-derived volatiles in the yellow fever mosquito, Aedes aegypti (Diptera: Culicidae)” (PLOS ONE, 2024)", "assay_type_in_all_cases": "cell-based", "key": {"AaegOR11": {"target": "T1, AaegOR11 (Aedes aegypti, UniProt Q16PN4)", "T1 sequence (Q16PN4 1-420)": "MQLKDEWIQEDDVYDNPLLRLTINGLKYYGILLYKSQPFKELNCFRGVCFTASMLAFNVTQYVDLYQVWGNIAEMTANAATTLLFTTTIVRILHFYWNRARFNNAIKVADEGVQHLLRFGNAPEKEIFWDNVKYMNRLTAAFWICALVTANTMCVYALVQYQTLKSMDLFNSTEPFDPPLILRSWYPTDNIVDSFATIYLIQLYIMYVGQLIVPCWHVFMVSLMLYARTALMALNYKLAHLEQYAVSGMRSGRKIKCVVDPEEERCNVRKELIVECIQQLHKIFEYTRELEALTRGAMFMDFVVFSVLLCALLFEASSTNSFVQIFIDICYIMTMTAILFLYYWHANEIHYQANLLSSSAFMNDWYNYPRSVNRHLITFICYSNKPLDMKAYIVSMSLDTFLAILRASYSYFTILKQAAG", "T1 sequence (Q178U6 1-478 partner)": "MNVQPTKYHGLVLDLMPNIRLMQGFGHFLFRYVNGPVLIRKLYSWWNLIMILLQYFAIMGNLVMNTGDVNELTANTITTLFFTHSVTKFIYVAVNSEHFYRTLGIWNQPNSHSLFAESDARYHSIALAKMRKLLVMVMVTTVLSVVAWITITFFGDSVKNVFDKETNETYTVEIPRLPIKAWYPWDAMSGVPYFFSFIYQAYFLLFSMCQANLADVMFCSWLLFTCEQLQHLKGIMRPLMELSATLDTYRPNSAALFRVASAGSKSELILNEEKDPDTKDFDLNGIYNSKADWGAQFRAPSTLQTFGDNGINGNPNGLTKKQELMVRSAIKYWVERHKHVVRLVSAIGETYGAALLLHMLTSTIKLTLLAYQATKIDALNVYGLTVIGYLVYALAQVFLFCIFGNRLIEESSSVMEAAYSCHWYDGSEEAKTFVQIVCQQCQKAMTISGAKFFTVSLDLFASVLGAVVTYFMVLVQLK", "experiment": "Two-electrode voltage clamp of Xenopus laevis oocytes expressing AaegOR11/Orco (blends, unitary compounds, concentration-response)", "details": "for Normalized response, Average, unitary compounds of blend Terpenes 3: average over oocytes (9; fenchones 6); for Raw data (Responses in nA), unitary compounds of blend Terpenes 3: individual oocytes 1-9 (replicates); for Normalized response, unitary compounds of blend Terpenes 3: individual oocytes, normalized to cis-Decahydro-1-napthol = 100; for Raw Data (Responses in nA), concentration-response: oocytes 1-9", "description": "(§1) The coding regions of ten AaegOR genes of interest (S3 File) and AaegOrco were synthesized by Twist Bioscience (San Francisco, CA, USA) and cloned into the pENTR plasmid. The Gateway LR directional cloning system (Invitrogen Corp., Carlsbad, CA, USA) was utilized to subclone AaegOR coding regions into the pSP64t-RFA oocyte expression plasmid. Plasmids were purified using the GeneJet Plasmid Miniprep Kit (ThermoFisher Scientific, Waltham, MA, USA). Purified plasmids were sequenced in both directions to confirm coding regions.\n(§2) Chemical compounds (S6 File) used in the deorphanization of AaegORs were purchased from Acros Organics (Morris, NJ, USA), Alfa Aesar (Ward Hill, MA, USA), and ThermoFisher Scientific (Waltham, MA, USA) at the highest purity available. Compounds were stored as 1M stocks in 100% DMSO. Serial dilutions of each compound were prepared in 10% DMSO and blended by chemical class.\n(§3) pSP64t-RFA: AaegOR clones were linearized using Xbal, and cRNAs were synthesized using the mMESSAGE mMACHINE ® SP6 kit (Life Technologies, Carlsbad, CA, USA). Xenopus laevis stage V-VII oocytes purchased from Xenopus1 (Dexter, MI, USA) were stored at 18°C in Incubation medium (ND96 96 with 5% dialyzed horse serum, 50μg/mL gentamycin, 100μg/mL streptomycin, 100μg/mL penicillin, and 550μg/mL sodium pyruvate). 30nL of cRNA was injected into multiple oocytes using a microinjection syringe pump (World Precision Instruments, Sarasota, FL, USA) maintained at 18°C for 48–72 hrs. Odorant blends were perfused across individual oocytes for 10–15 seconds, held at a resting membrane potential of -80 mV using an OC-725C oocyte clamp (Warner Instruments, LLC, Hamden, CT, USA). Induced currents were measured indirectly using the two-electrode voltage clamp technique (TEVC). Following each stimulus, currents were allowed to return to baseline before further stimulation. Data was captured using the Digidata 1550 B digitizer and PClamp10 software (Molecular Devices, San Jose, CA, USA). Concentration-response curves were generated by perfusing unitary odorants over oocytes at increasing concentrations from [10^-3M] to [10^-9M]. Data were analyzed using GraphPad Prism 8 (GraphPad Software Inc., La Jolla, CA, USA). At least two biological replicates were conducted at each concentration and for each compound. Data for at least seven oocytes responding to each compound was analyzed (S7 File)."}, "AaegOR8": {"target": "T2, AaegOR8 (Aedes aegypti, UniProt Q16MN0)", "T2 sequence (Q16MN0 32-422)": "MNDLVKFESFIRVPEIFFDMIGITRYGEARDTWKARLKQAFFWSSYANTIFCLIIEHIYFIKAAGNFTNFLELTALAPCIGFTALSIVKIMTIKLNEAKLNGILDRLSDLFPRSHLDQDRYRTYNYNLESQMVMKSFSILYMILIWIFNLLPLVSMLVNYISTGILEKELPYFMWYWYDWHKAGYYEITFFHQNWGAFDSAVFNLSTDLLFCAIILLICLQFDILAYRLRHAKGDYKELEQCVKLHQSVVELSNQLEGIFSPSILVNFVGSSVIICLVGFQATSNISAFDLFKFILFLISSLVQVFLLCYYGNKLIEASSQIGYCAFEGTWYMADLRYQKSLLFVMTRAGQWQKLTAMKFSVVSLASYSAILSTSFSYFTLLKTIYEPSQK", "T2 sequence (Q178U6 1-478 partner)": "T1 sequence (Q178U6 1-478 partner)", "experiment": "Two-electrode voltage clamp of Xenopus laevis oocytes expressing AaegOR8/Orco (blends, unitary compounds, concentration-response)", "details": "Alcohols 2 unitary compounds", "description": "as §1, §2, §3"}, "AaegOR15": {"target": "T3, AaegOR15 (Aedes aegypti, UniProt A0A6B9QIR2)", "T3 sequence (A0A6B9QIR2 1-390)": "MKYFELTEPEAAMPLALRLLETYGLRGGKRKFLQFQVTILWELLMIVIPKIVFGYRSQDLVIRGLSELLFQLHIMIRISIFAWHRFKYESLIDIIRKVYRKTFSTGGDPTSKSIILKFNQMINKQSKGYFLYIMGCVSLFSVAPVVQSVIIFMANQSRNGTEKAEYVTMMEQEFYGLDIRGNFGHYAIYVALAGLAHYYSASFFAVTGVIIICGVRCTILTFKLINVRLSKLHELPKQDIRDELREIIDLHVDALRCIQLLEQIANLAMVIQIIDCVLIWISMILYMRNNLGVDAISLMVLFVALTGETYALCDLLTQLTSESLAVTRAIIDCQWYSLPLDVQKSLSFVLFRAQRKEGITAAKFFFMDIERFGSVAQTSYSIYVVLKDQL", "T3 sequence (Q178U6 1-478 partner)": "T1 sequence (Q178U6 1-478 partner)", "experiment": "Two-electrode voltage clamp of Xenopus laevis oocytes expressing AaegOR15/Orco (blends, unitary compounds, concentration-response)", "details": "unitary compounds of Alcohols 2; individual oocytes 1-10 (replicates)", "description": "as §1, §2, §3"}}, "note": "“And” between values parts separate entries of the source, which are not always exact repeats. Equal entries are not always repeated."}
{"smiles": "CC(=O)OCCC(C)C", "note": "[Isomyl acetate]", "values": [{"measurement": "Normalized response, Average, unitary compounds of blend Terpenes 3", "setting": "AaegOR11", "value": 0.0}, {"measurement": "Raw data (Responses in nA), unitary compounds of blend Terpenes 3", "setting": "AaegOR11", "value": 0, "unit": "nA"}, {"measurement": "Normalized response, unitary compounds of blend Terpenes 3", "setting": "AaegOR11", "value": 0.0}]}
{"smiles": "CC(C)=CCC/C(C)=C\\CO", "note": "[Nerol]", "values": [{"measurement": "Raw data (Responses in nA), unitary compounds of blend Terpenes 3", "setting": "AaegOR11", "value": 0, "unit": "nA"}]}
{"smiles": "C=C1CCC2(C(C)C)CC12", "note": "(stereo not drawn) [Sabiene]", "values": [{"measurement": "Normalized response, Average, unitary compounds of blend Terpenes 3", "setting": "AaegOR11", "value": 0.556}, {"measurement": "Raw data (Responses in nA), unitary compounds of blend Terpenes 3", "setting": "AaegOR11", "value": "0 nA (8×) and 5 nA"}, {"measurement": "Normalized response, unitary compounds of blend Terpenes 3", "setting": "AaegOR11", "value": "0.0 (8×) and 5.0"}]}
{"smiles": "C=C1CC/C=C(\\C)CC[C@@H]2[C@@H]1CC2(C)C", "note": "[beta-caryophyllene]", "values": [{"measurement": "Raw data (Responses in nA), unitary compounds of blend Terpenes 3", "setting": "AaegOR11", "value": "10 nA (2×) and 0 nA (6×) and 20 nA"}]}
{"smiles": "OC1CCCC2CCCCC12", "note": "(stereo not drawn) [cis-decahydro-1-napthol, cis-Decahydro-1-napthol]", "values": [{"measurement": "Raw Data (Responses in nA), concentration-response", "setting": "AaegOR11; 1e-6 M", "value": 10.0, "unit": "nA"}, {"measurement": "Raw Data (Responses in nA), concentration-response", "setting": "AaegOR11; 5e-6 M", "value": "15.0 nA and 10.0 nA and 20.0 nA"}, {"measurement": "Raw Data (Responses in nA), concentration-response", "setting": "AaegOR11; 1e-5 M", "value": "15.0 nA and 10.0 nA"}, {"measurement": "Raw Data (Responses in nA), concentration-response", "setting": "AaegOR11; 0.0005 M", "value": "90.0 nA and 60.0 nA and 100.0 nA and 50.0 nA and 65.0 nA"}, {"measurement": "Raw Data (Responses in nA), concentration-response", "setting": "AaegOR11; 0.001 M", "value": "70.0 nA and 40.0 nA and 80.0 nA and 60.0 nA and 45.0 nA"}, {"measurement": "EC50", "setting": "AaegOR11; AaegOR11/Orco expressing oocytes, TEVC, concentration-response of normalized current", "value": "~68.4 µM and 68.4 µM"}, {"measurement": "magnitude of response of AaegOR11 to unitary compounds", "setting": "AaegOR11; AaegOR11/Orco expressing oocytes, TEVC, individual compounds", "value": "greater magnitude of response than (-)-fenchone or (+)-fenchone"}, {"measurement": "Raw data (Responses in nA), unitary compounds of blend Terpenes 3", "setting": "AaegOR11", "value": "70 nA and 100 nA and 30 nA (2×) and 40 nA (2×) and 85 nA and 150 nA and 110 nA"}, {"measurement": "Raw data (Responses in nA), unitary compounds, additional oocytes", "setting": "AaegOR11; six further oocytes in columns without head (fenchone comparison with cis-Decahydro-1-napthol)", "value": 20, "unit": "nA"}]}
{"smiles": "CC12CCC(C1)C(C)(C)C2=O", "note": "(stereo not drawn) [fenchone]", "values": [{"measurement": "Secondary Ligand", "setting": "AaegOR11; AaegOR11, secondary ligand identified during the functional characterizations", "value": "fenchone"}]}
{"smiles": "CCC/C=C/C=O", "note": "[trans-2-hexenal]", "values": [{"measurement": "Raw data (Responses in nA) Oocyte 1", "setting": "AaegOR8; oocyte 1", "value": 0.0, "unit": "nA"}, {"measurement": "Raw data (Responses in nA) Oocyte 2", "setting": "AaegOR8; oocyte 2", "value": 0.0, "unit": "nA"}, {"measurement": "Raw data (Responses in nA) Oocyte 3", "setting": "AaegOR8; oocyte 3", "value": 0.0, "unit": "nA"}, {"measurement": "Raw data (Responses in nA) Oocyte 4", "setting": "AaegOR8; oocyte 4", "value": 0.0, "unit": "nA"}, {"measurement": "Raw data (Responses in nA) Oocyte 5", "setting": "AaegOR8; oocyte 5", "value": 0.0, "unit": "nA"}, {"measurement": "Raw data (Responses in nA) Oocyte 6", "setting": "AaegOR8; oocyte 6", "value": 0.0, "unit": "nA"}, {"measurement": "Raw data (Responses in nA) Oocyte 7", "setting": "AaegOR8; oocyte 7", "value": 0.0, "unit": "nA"}, {"measurement": "Raw data (Responses in nA) Oocyte 8", "setting": "AaegOR8; oocyte 8", "value": 0.0, "unit": "nA"}, {"measurement": "Raw data (Responses in nA), compounds of blend Alcohols 2", "setting": "AaegOR15", "value": "0.0 nA and 15.0 nA and 30.0 nA (2×) and 10.0 nA and 40.0 nA (2×) and 50.0 nA (2×) and 60.0 nA"}]}
